Reference: patent US11872261B2, “Lipoprotein targeting protease inhibitors and uses” (The United States of America, as represented by the …, priority 2016, dated 2024)

Key:
Format in all cases: in vivo, human
[1] = Clinical pilot study: lipoprotein particle numbers by nuclear magnetic resonance; settings: 20 mg/day, 28 days vs baseline
Procedure: FIG. 1A-1C. Effect of rosuvastatin on plasma lipids and lipoprotein particle numbers. (FIG. 1A) Rosuvastatin effects on total plasma lipid levels (TC=total cholesterol; HDL-C=HDL cholesterol; LDL-C=LDL cholesterol; TG=triglyceride). The effect of rosuvastatin on LDL particle number (FIG. 1B) and HDL particle number (FIG. 1C) were measured by nuclear magnetic resonance. T0 and […] are time points indicating baseline and after 28 days of rosuvastatin treatment, respectively. Data are mean±standard deviation. * indicates p<0.01. Fasting blood samples were obtained from ten healthy volunteers participating in a study of the NIH Center for Human Immunology, intended to evaluate effects of a statin on the immune system. This protocol was approved by the institutional review board of the National Heart, Lung, and Blood Institute (NHLBI) and registered at clinicaltrials.gov (NCT01200836); all participants provided written informed consent. Three males and seven females were enrolled, with an average age of 44.1±11 years. Participants were selected to have normal LDL-C (<130 mg/dL) and were not on any lipid modification therapy prior to the study. […] HDL-C was measured by a direct assay (Siemens) and LDL-C was determined by the Friedewald equation. Lipoprotein particle numbers and average particle sizes were determined from heparinized plasma on a […] […]

[2] = system: lipoprotein proteome (LDL, HDL-L, HDL-S); experiment: Lipoprotein proteomics, spectral counting of LDL, HDL-L and HDL-S pools; settings: 28 days vs baseline
Procedure: Collected plasma from each subject at baseline (n=10) and after 28 days of rosuvastatin treatment (n=10) was applied to two Superdex 200 columns (GE Healthcare) arranged in series on an Akta FPLC system. The flow rate was set to 0.5 mL/min and 0.5 mL fractions were collected. Fractions were assayed for phosphatidylcholine, total cholesterol, free cholesterol and triglyceride by enzymatic assays (Wako Diagnostics) to determine position of elution for lipoproteins. For each subject, fractions were combined to make LDL (elution vol. 17.5-20 mL), HDL-large (HDL-L; elution vol. 21-23 mL) and HDL-small (HDL-S; elution vol. 23-25 mL) pools, generating a total of 60 samples for MS analysis.
Pooled FPLC fractions were applied to a phospholipid binding resin and washed to isolate lipid bound protein components, as previously described (Gordon et al., J Proteome Res 9: 5239-5249, 2010). Resin bound proteins were then subjected to overnight trypsin digestion at 37° C. Resulting peptides were collected and then reduced with dithiothreitol (200 mM; 30 min at 37° C.) and carbamidomethylated with iodoacetamide (800 mM; 30 min at 25° C.). Digest solutions were dried, reconstituted in 100 μL of water+0.1% formic acid and desalted using ZipTips (Millipore), and stored at −20° C. until MS analysis.
Desalted samples were dried and reconstituted in 20 μL of water+0.1% formic acid and 10 μL was analyzed on a Thermo Orbitrap Velos Mass Spectrometer instrument. Blank runs were performed between each sample to prevent carry over. Peak lists were generated using Proteome Discoverer (version 1.3.0.339) and resulting spectra were searched against the SwissProt database (version 012214), using Mascot (version 2.4.0) to identify protein components of the lipoprotein fractions (fragment ion mass tolerance of 0.80 Da and a parent ion tolerance of 20 PPM). Search criteria included: human taxonomy, fixed modification: carbamidomethylation (C), variable modifications: oxidation (M), deamidation (N, Q) and up to two missed trypsin cleavage sites were allowed. Validation of peptide and protein identifications was performed using Scaffold software (version 4.1.1) and a 1.0% false discovery rate (FDR) for both peptide and protein thresholds and a minimum of 2 identified peptides were required per protein. Calculated decoy FDR for peptide and protein identifications were 0.03% and 0.7%, respectively. Spectral counting was used as a semi-quantitative comparison of protein abundance between baseline and on-treatment samples using normalized spectrum count calculated by the Scaffold software. Comparisons were only performed to estimate the relative abundance of the same protein in the same lipoprotein pool before and after rosuvastatin treatment; no comparisons were made between lipoprotein fractions. Data was analyzed by student's T-test to identify proteins with statistically significant (p<0.05) changes in normalized spectral counts. Because this MS analysis was intended primarily for screening purposes, to identify candidates for hypothesis driven functional experiments, the data analysis was not corrected for multiple comparisons. All MS data have been deposited to the ProteomeXchange Consortium (Vizcaino et al., Nat Biotechnol 32: 223-226, 2014) via the PRIDE partner repository with the dataset identifier PXD002633.
To test our hypothesis that rosuvastatin alters the lipoprotein proteome, we pooled fractions containing LDL and HDL and used mass spectrometry (MS) to analyze the lipid associated protein content of each of these lipoproteins in each subject at baseline and after 28 days on rosuvastatin. The HDL peak was divided into two halves, representing large and small HDL, to gain additional insight given the proteomic complexity of HDL. […]

[3] = system: alpha-1-antitrypsin (A1AT); experiment: ELISA of A1AT in large HDL fraction and in plasma
Excerpt: FIG. 5A-5C. Quantitative measurement of alpha-1-antitrypsin on HDL and in plasma. (FIG. 5A) Individual patient spectral counts for alpha-1-antitrypsin (A1AT) in large HDL at baseline (T0) and after 28 days (T28) of rosuvastatin treatment, n=10 for each time point. The “n=5” indicator points to data from 5 subjects with a high degree of overlap. (FIG. 5B) Quantitative measurement of A1AT in large HDL by ELISA assay. (FIG. 5C) Time course of plasma A1AT concentrations during rosuvastatin treatment and after two-week washout period (Day 42 time point). * indicates p<0.05 and ** indicates p<0.01 compared to T0.
To more quantitatively evaluate the change in A1AT levels observed in the MS data, we performed ELISA assays to measure A1AT in the large HDL fractions from all subjects.
In addition to measuring the A1AT content of large HDL, we also measured total A1AT in plasma. There was a clear trend of increasing plasma A1AT while on treatment and a return to baseline after a two week treatment washout, this effect was relatively small, approximately 10% (FIG. 5c). […] We calculated an A1AT:HDL-particle ratio (mol:mol) of about 1:100 at baseline and 1:25 after rosuvastatin treatment.

CC(C)c1nc(N(C)S(C)(=O)=O)nc(-c2ccc(F)cc2)c1/C=C/[C@@H](O)C[C@@H](O)CC(=O)O [rosuvastatin]
increase of HDL-p ([1]; not statistically significant): 6.2%
reduction of LDL particle number (LDL-p) ([1]; p<0.001): 51%
change in Ig kappa chain V-II spectral counts ([2]; LDL fraction): +68%
change in complement C3 spectral counts ([2]; LDL fraction): +71%
magnitude of reductions in protein spectral counts, LDL fraction ([2]; LDL fraction): −20 to −71%
change in Ig lambda like polypeptide 5 spectral counts ([2]; large HDL): −12%
change in N-acetylmuramoyl-L-alanine amidase spectral counts ([2]; large HDL): −69%
change in alpha-1-antitrypsin (A1AT) spectral counts ([2]; large HDL): +2438%
change in ceruloplasmin spectral counts ([2]; large HDL): +27%
change in clusterin spectral counts ([2]; large HDL): −13%
change in kallikrein spectral counts ([2]; large HDL): −26%
increase in A1AT spectral counts associated with large HDL ([2]; large HDL): 24 fold
change in alpha-1-antichymotrypsin spectral counts ([2]; small HDL fraction): −89%
change in apolipoprotein C-III spectral counts ([2]; small HDL fraction): −13%
change in complement C2 spectral counts ([2]; small HDL fraction): −44%
change in vitronectin spectral counts ([2]; small HDL fraction): +23%
elevation of A1AT in large HDL fraction, high responders ([3]; ELISA, high responders, range): 5-18 fold
increase in A1AT levels in large HDL fraction, low-responders ([3]; ELISA, low-responders, range): 6-36%
average increase in HDL-L associated A1AT by ELISA ([3]; HDL-L, 28 days vs baseline, all subjects): 5.7 fold
fraction of total A1AT bound to HDL after therapy ([3]; estimated from A1AT content of HDL-L and plasma, baseline 0.84±0.037%): approximately 4.54±1.73%
increase of total plasma A1AT while on treatment ([3]; plasma, return to baseline after two week washout): approximately 10%
